Test results from US20060194740A1, “NOD1 as an anti-tumor agent” (priority 2005, published 2006).
Blank lines part the entries; values can stand above or below the compound they belong to. Starred links: 1 amine or outer side, 2 acyl side, 3 side chain; linkers in the order of their positions; H or OH if unused. Non-standard residues stand in square brackets, D forms with d. Residues, ends and D or L forms follow the SMILES beside them. No end group written: not given here. *: point of attachment. mesoDAP = meso-diaminopimelic acid, O=C(O)[C@@H](CCC[C@H](N[*:1])C(=O)[*:2])N[*:3]; Diaminopimelic acid = diaminopimelic acid; Cbz = O=C(OCc1ccccc1)*; CH2F = FC*

Assays:
MCF-7 cells = assay: Propidium iodide exclusion cell death assay, wild-type (parental/Blasto) MCF-7 cells; assay type: cell-based, human; conditions: for sensitivity to cell death: parental versus C20 cells (data not shown)
Method: (§1) Cell viability assays. Propidium iodide exclusion assay: Cells were stimulated as indicated for 2 days. Subsequently, cells were harvested, washed twice in FACS buffer (PBS containing 1% FCS and 0.1% NaN3) and resuspended in propidium iodide (PI)—containing FACS buffer (4 ug/ml). The extent of cell death was analyzed with a FACSCalibur flow cytometer (Becton Dickinson, Mountain View, Calif.). DAPI staining: MCF-7 cells were plated in chamber slides, and stimulated for 2 days. Cells were washed with PBS and apoptotic nuclei were stained with 1 μg/ml DAPI (Sigma Chemical Co., St. Louis, Mo.). Cells were fixed in 4% paraformaldehyde and examined by fluorescence microscopy.
(§2) To further investigate the role of Nod1 in apoptosis, a variety of cell types were incubated with the Nod1 ligand, […] (γTriDAP), which specifically activates Nod1. The cell types tested included the parental MCF-7 cell line, the Nod1-deficient MCF-7C20 clone, and a cell line engineered to contain an additional human Nod1 allele (MCF-7Nod1) so that Nod1 was over-expressed. To determine whether the resistance of C20 cells to γTriDAP-induced apoptosis resulted from the absence of Nod1, human Nod1 was stably expressed in MCF-7 C20 cells to produce Nod1-sufficient C20 cells (C20/Nod1). As another control, the parental MCF-7 cell line was transfected with an empty retroviral vector to generate MCF-7 Blasto cells. Cells were treated with γTriDAP in the presence or absence of cycloheximide (CHX) and cell death was then determined by propidium iodide staining and flow cytometry.

MCF-7 Nod1 cells = assay: Propidium iodide exclusion cell death assay, MCF-7 Nod1 cells over-expressing Nod1; assay type: cell-based, human; conditions: for effect on γTriDAP-induced apoptosis: inhibitor 100 uM, 30 min prior to γTriDAP/CHX for 48 h (FIG. 6A); for effect on γTriDAP-induced cell death: caspase inhibitor 50 uM, 30 min before γTriDAP/CHX for 48 h (FIG. 2D)
Method: as §1, §2

MCF-7 C20 cells [1] = assay: Propidium iodide exclusion cell death assay, Nod1-deficient MCF-7 C20 cells; assay type: cell-based, human
Method: as §1, with “Propidium iodide exclusion assay: Cells were stimulated as indicated for 2 days.” left out
as §2

MCF-7 C20/Nod1 cells = assay: Propidium iodide exclusion apoptosis assay, MCF-7 C20/Nod1 cells; assay type: cell-based, human; conditions: γTriDAP/CHX (FIG. 12A)
Method: as §1, §2
To determine whether the presence of estrogens modulates Nod1-induced apoptotic pathway, cells were cultured in medium containing charcoal-treated serum.

[2] = system: poly(ADP-ribose)polymerase (PARP) and capases 6, 7, 8 and 9; assay: Western blot of PARP and caspase cleavage in MCF-7 cells; assay type: cell-based, human; conditions: 24 h (FIG. 3)
Method: (§3) Western blot analysis and immunoprecipitation. Cells were washed extensively and lysed using lysis buffer containing 50 mM Hepes, 100 mM NaCl, 2 mM EDTA, 10% glycerol, 1% Nonidet P-40, 14 μM pepstatin A, 100 uM leupeptin, 3 mM benzamidine, 1 mM PMSF, 1 mM sodium pyrophosphate, 10 mM sodium orthovanadate, 100 U/ml aprotinin, and 100 mM sodium fluoride. After incubation for 30 min on ice, cell lysates were centrifuged (14000 rpm, 10 min, 4° C.) and the supernatants were recovered. For immunoprecipitation, cell lysates were mixed with 5 μg of antibody for 3 hour at 4° C. under constant agitation. Immune complexes were allowed to bind to 20 μl protein A-Sepharose beads overnight, beads were washed three times with lysis buffer. Immunoprecipitates were separated on SDS-PAGE and transferred to PVDF membranes.
Further confirmation that γTriDAP induces apoptosis was obtained using two broad spectrum caspase inhibitors, z-VAD-FMK and Boc-D-FMK. Both z-VAD-FMK and Boc-D-FMK abrogated γTriDAP-induced cell death (FIG. 2D).

JNK = JNK phosphorylation in MCF-7 RIP2 transfectants; assay type: cell-based, human; conditions: γTriDAP with cycloheximide for 2 h in wild type RIP2 or RIP2 KD cells (FIG. 7C)
Method: as §3
The effect of RIP2 expression on γTriDAP-induced JNK phosphorylation was also examined (FIG. 7C).

MCF-7C20 cells = assay: IL-8 production, MCF-7C20 cells; assay type: cell-based, human; conditions: MCF-7C20 cells (data not shown)
MCF7-C20Nod1 cells = assay: IL-8 production, MCF7-C20Nod1 cells; assay type: cell-based, human; conditions: wild-type Nod1 expressed in MCF7-C20Nod1 cells (FIG. 5C)
MCF-7 Nod2 cells [3] = assay: Propidium iodide apoptosis assay, MCF-7 Nod2 cells; assay type: cell-based, human; conditions: MDP plus CHX, 48 h (FIG. 5A)
Method: as §1
(§4) Experiments were also performed to ascertain whether activation of Nod2 by its specific activator, muramyl dipeptide (MDP), would initiate apoptosis in parental MCF-7 cells or in MCF-7 cells over-expressing Nod2 (MCF-7 Nod2). Thus, γTriDAP or MDP were added to each of these lines and apoptosis (FIG. 5A) and IL-8 production (FIG. 5C) were measured. […] Expression of Nod1 and Nod2 in MCF-7 stable transfectants was confirmed by immunoblotting (FIG. 5B).

MCF-7 Nod2 cells [4] = assay: IL-8 secretion ELISA, MCF-7 Nod2 cells; assay type: cell-based, human; conditions: 24 h (FIG. 5C)
Method: IL-8 ELISA. Concentrations of IL-8 in the culture supernatants of transfected HeLa cells were measured by ELISA using 96-well Immunlon plates (Dynatech Laboratories, Chantilly, Va.). ELISA was performed using the mAb MAB208 for capture and a biotinylated polyclonal rabbit anti-human IL-8 Ab (R&D Systems, Minneapolis, Minn.) followed by streptavidin HRP for detection.
as §4

MCF-7 RIP2 KD cells = assay: Propidium iodide apoptosis assay, MCF-7 RIP2 KD cells; assay type: cell-based, human; conditions: cells expressing RIP2 KD; 20 μg/ml, CHX, 48 hr (FIG. 13A)
Method: as §1
Several RIP2 mutants were stably expressed in MCF-7 cells to evaluate the role of the RIP2 kinase activity in γTriDAP-induced apoptosis. Expression of RIP2 lacking its CARD domain completely abrogated Nod1-induced cell death (FIG. 7A). […] Cells expressing wild type RIP2 and RIP2 KD constructs were sensitive to lower concentrations of γTriDAP and died faster than cells expressing only Nod1 (FIG. 13C) or than parental MCF-7Blasto cells (data not shown).

SK-BR3 = assay: Apoptosis by PI staining, SK-BR3 cells stably expressing Nod1; assay type: cell-based, human; conditions: SKBR3 cells; αTriDAP substituted for γTriDAP, with TNFα and cycloheximide (FIG. 9B)
Method: as §1
To determine if Nod1-dependent apoptosis occurs in other human cell lines, a series of epithelial cell lines were examined where Nod1 was stably expressed to enhance sensitivity to activation of the Nod1 pathway. Cells were treated with TNFα (T) and γTriDAP (γ) in the presence or absence of CHX (C) and monitored for viability by PI staining as a measure of apoptosis (Table 1).

Myc-NOD1 (human) = Myc-NOD1 (human) (UniProt Q9Y239); assay: cell-based or functional assay
[5] = target: endogenous NOD1 protein of parental MCF-7 cells (human) (UniProt Q9Y239); assay: cell-based or functional assay
[6] = target: human Nod1 stably expressed in cell lines (human) (UniProt Q9Y239); assay: cell-based or functional assay
MCF-7 C20 cells [7] = assay: 3H-thymidine proliferation assay, MCF-7 C20 cells; assay type: cell-based, human; conditions: tamoxifen added in the culture medium (data not shown)
Method: Retroviral transfections. The various genes used in this study were cloned into pMSCV-Blasto, pBabe-Puro or pBabe-Neo retroviral vectors. MCF-7 cells were stably transfected using available procedures. Briefly, amphotropic 293 cells were transfected with retroviral vectors encoding selected Nod1, Nod2 and other proteins. Twenty-four hours post-transfection, cells were incubated at 32° C. overnight to produce viral particles. Target cells were infected the next day with virus-containing 293 cell supernatants containing recombinant retroviral particles. Cells were selected with 10 μg/ml blasticidin S (Calbiochem EMD Biosciences Inc., San Diego, Calif.), 500 μg/ml […] (Invitrogen, Carlsbad, Calif.) or 5 μg/ml puromycin (Calbiochem). The expression of all constructs was confirmed by Western blot analysis. To determine the effects of 17β-estradiol (Calbiochem), cells were cultured in phenol red-free DMEM supplemented with […]. Cells were seeded in 96 well plates with various concentration of 17β-estradiol (E2) for 24 h and pulsed with ^3H-thymidine (1 μCi/well, MP Biomedicals, Irvine, Calif.). Cells were harvested on glass fiber filters and radioactivity measured by liquid scintillation. […]

[8] = agent alone, wild type cells (FIG. 2A)

Compound: CC[C@@]1(O)C(=O)OCc2c1cc1n(c2=O)Cc2cc3ccccc3nc2-1 [camptothecin]
sensitivity to cell death (MCF-7 cells): equally sensitive

Compound: IETD
effect on γTriDAP-induced apoptosis (MCF-7 Nod1 cells): marked inhibitory effects

Compound: COc1cccc2c1C(=O)c1c(O)c3c(c(O)c1C2=O)C[C@@](O)(C(=O)CO)C[C@@H]3O[C@H]1C[C@H](N)[C@H](O)[C@H](C)O1 [doxirubicin]
sensitivity to cell death (MCF-7 cells): equally sensitive

Compound: D-Ala-L-Glu-Diaminopimelic acid ([dA]-Glu-[Diaminopimelic acid]; also: Glu gamma-carboxyl linked to DAP (γTriDAP))
cell death (MCF-7 cells; [8]): No cell death
cell death (MCF-7 cells; γTriDAP in the presence of cycloheximide, wild-type MCF-7, PI staining, flow cytometry (FIG. 2A)): about 25%
apoptosis (MCF-7 C20 cells [1]; γTriDAP plus cycloheximide, MCF-7C20 without Nod1 expression): totally resistant
cell death (MCF-7 Nod1 cells; combination of cycloheximide and γTriDAP, 48 h treatment, MCF-7Nod1 cells): ~60%
γTriDAP-induced apoptosis (MCF-7 C20/Nod1 cells; with steroids): 80%
γTriDAP-induced apoptosis (MCF-7 C20/Nod1 cells; without steroids (charcoal-treated serum)): 10%
proteolytic cleavage of PARP and capases 6, 7, 8 and 9 [2]: resulted in proteolytic cleavage
phosphorylation of JNK (JNK): induced phosphorylation of JNK
γTriDAP-induced IL-8 production (MCF-7C20 cells): inhibited
γTriDAP-induced IL-8 production (MCF7-C20Nod1 cells): restored

Compound: CC(=O)N[C@H]1C(O)O[C@H](CO)[C@@H](O)[C@@H]1O[C@H](C)C(=O)N[C@@H](C)C(=O)N[C@H](CCC(=O)O)C(N)=O (mixture of isomers) [MDP, muramyl dipeptide]
apoptosis (MCF-7 Nod2 cells [3]): did not undergo increased apoptosis
IL-8 secretion (MCF-7 Nod2 cells [4]): did result in IL-8 secretion
apoptosis (MCF-7 RIP2 KD cells): effective at inducing high levels of apoptosis

Compound: COC(=O)C[C@H](NC(=O)[C@H](C)NC(=O)[C@@H](NC(=O)OCc1ccccc1)C(C)C)C(=O)CF [z-VAD-FMK] (Cbz-Val-Ala-Asp(OMe)-CH2F)
effect on γTriDAP-induced cell death (MCF-7 Nod1 cells): abrogated
effect on γTriDAP-induced apoptosis (MCF-7 Nod1 cells): blocked γTriDAP-induced apoptosis nearly completely

Compound: αTriDAP: inactive control tri-peptide where mesoDAP was bound to Glu in the a position rather than in the γ position (Ala-Glu-[mesoDAP]; not fully specified (residue 1); also: DAP bound to Glu alpha-carboxyl (αTriDAP))
cell death (MCF-7 cells; incubated with MCF-7 cells in the presence of cycloheximide (FIG. 2A)): did not induce cell death
proteolytic cleavage of PARP and capases 6, 7, 8 and 9 [2]: not
apoptosis (SK-BR3): reduced apoptosis

Compound: COC(=O)CC(NC(=O)OC(C)(C)C)C(=O)CF [Boc-D-FMK]
effect on γTriDAP-induced cell death (MCF-7 Nod1 cells): abrogated

Compound: C[C@@H]1C[C@@H]([C@H](O)CC2CC(=O)NC(=O)C2)C(=O)[C@@H](C)C1 [cycloheximide]
cell death (MCF-7 cells; [8]): No cell death

γTriDAP-induced apoptosis; C20/Nod1 cells cultured with steroids [6]: 80%
γTriDAP-induced apoptosis; C20/Nod1 cells cultured without steroids [6]: 10%
Compound: D-Ala-L-Glu-Diaminopimelic acid (γTriDAP) (peptide)
cell death by propidium iodide staining and flow cytometry; MCF-7Nod1 cells, γTriDAP with cycloheximide, 48 h (Myc-NOD1 (human)): 60%
cell death by propidium iodide staining and flow cytometry; wild-type MCF-7 cells, γTriDAP with cycloheximide [5]: 25%

Compound: CC/C(=C(\c1ccccc1)c1ccc(OCCN(C)C)cc1)c1ccccc1 [tamoxifen, reference compound]
effect on γTriDAP-induced cell death (MCF-7 cells; tamoxifen prior to γTriDAP/CHX, MCF-7 cell lines (FIG. 12B)): partially blocked
effect on estrogen-induced proliferation (MCF-7 C20 cells [7]): blocked

Compound: TNFα
TNFα-induced apoptosis (MCF-7 C20 cells [1]; MCF-7 C20 versus parent MCF-7 cells, TNF 0-40 ng/ml, 20 h (FIG. 1C)): significantly more resistant
